Measurements published in patent US8247211B2, “Glycopeptide antibiotics” (American Cyanamid Company, priority 2001, dated 2012).
Converted amounts (≈) assume the structure as drawn.

Tests used:
[1] = system: Staphylococcus aureus-SMITH (GC 4543); experiment: Acute lethal infection in mice (ED50); assay type: in vivo; settings: female CD-1 mice, intraperitoneal challenge, intravenous dose 30 min. after infection, 7 day survival ratios
In short: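 Groups of five female CD-1 mice per dose got intravenous antibiotic in saline or 5% dextrose half an hour after intraperitoneal infection sufficient to kill controls within 24-48 hr. Seven-day survival data from three experiments were combined to derive ED50.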

Escherichia coli = experiment: In vitro antibacterial evaluation: minimum inhibitory concentration (MIC), broth dilution method; assay type: cell-based
In short: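 Values are minimum inhibitory concentrations, meaning the smallest antibiotic concentration that stops growth of the organism. They come from broth dilution in Muller-Hinton II […] per NCCLS guidance (M7-A2), using 5×10^5 CFU/mL and concentrations from 64 to 0.06 μg/mL.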

Enterococcus sp. = experiment: as above; assay type: cell-based
In short: (§1)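 First, organisms are seeded at 5×10^5 CFU/mL into Muller-Hinton II […]. Next, antibiotic is applied across 64-0.06 μg/mL by broth dilution (NCCLS M7-A2). Finally, the lowest inhibitory concentration is recorded as MIC.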

Streptococcus sp. = experiment: as above; assay type: cell-based
In short: as §1

Staphylococcus sp. = experiment: as above; assay type: cell-based
In short: as §1

[2] = 5×10^5 CFU/mL, 18 hours at 35° C.
[3] = broth dilution, 5×10^5 CFU/mL, 18 hours at 35° C.
[4] = strain ATCC 29213, broth dilution, 18 hours at 35° C.
[5] = strain GC 1131, broth dilution, 18 hours at 35° C.
[6] = strain GC 3051, broth dilution, 18 hours at 35° C.
[7] = strain GC 3053, broth dilution, 18 hours at 35° C.
[8] = strain GC 4541, broth dilution, 18 hours at 35° C.
[9] = strain GC 4542, broth dilution, 18 hours at 35° C.
[10] = strain GC 4543, broth dilution, 18 hours at 35° C.
[11] = strain GC 4544, broth dilution, 18 hours at 35° C.
[12] = strain GC 4545, broth dilution, 18 hours at 35° C.
[13] = strain GC 4546, broth dilution, 18 hours at 35° C.
[14] = strain GC 4547, broth dilution, 18 hours at 35° C.
[15] = strain GC 4548, broth dilution, 18 hours at 35° C.
[16] = strain GC 4549, broth dilution, 18 hours at 35° C.
[17] = strain GC 4551, broth dilution, 18 hours at 35° C.
[18] = strain GC 6257, broth dilution, 18 hours at 35° C.

COc1cccc(C2OCC3OC(OC4C(CO)OC(Oc5ccc(CC6NC(=O)C(C(C)c7ccccc7)NC(=O)CNC(=O)C(CO)NC(=O)C(C(O)C7CNC(=N)N7C7OC(CO)C(O)C(O)C7O)NC(=O)C(C(O)C7CNC(=N)N7)NC6=O)cc5)C(O)C4O)C(O)C(O)C3O2)c1 (stereo not drawn) [Example 137, Cyclo[glycyl-β-methylphenylalanyl-O-[4-O-[4,6-O-(3-methoxybenzylidene)hexopyranosyl]-hexopyranosyl]-tyrosyl-3-(2-iminoimidazolidin-4-yl)seryl-3-(3-hexopyranosyl-2-iminoimidazolidin-4-yl)serylseryl]]
median effective dose (ED50), Staphylococcus aureus-SMITH (GC 4543) [1]: 0.24 mg/kg
MIC Escherichia coli (ATCC 25922) (Escherichia coli; [2]): 64 µg/mL (≈ 45.3 µM)
MIC Escherichia coli (GC 4560) (Escherichia coli; [2]): 1 µg/mL (≈ 0.708 µM)
MIC Enterococccus avium (GC 4558) (Enterococcus sp.; [3]): 4 to 8 µg/mL
MIC Enterococccus faecalis (ATCC 29212) (Enterococcus sp.; [3]): 4 to 8 µg/mL
MIC Enterococccus faecalis (GC 2691) (Enterococcus sp.; [3]): 4 to 8 µg/mL
MIC Enterococccus faecalis (GC 3059) (Enterococcus sp.; [3]): 4 to 8 µg/mL
MIC Enterococccus faecalis (GC 4552) (Enterococcus sp.; [3]): 4 to 8 µg/mL
MIC Enterococccus faecalis (GC 4553) (Enterococcus sp.; [3]): 4 to 8 µg/mL
MIC Enterococccus faecalis (GC 4554) (Enterococcus sp.; [3]): 4 to 8 µg/mL
MIC Enterococccus faecalis (GC 6189) (Enterococcus sp.; [3]): 4 µg/mL (≈ 2.83 µM)
MIC Enterococccus faecium (GC 2243) (Enterococcus sp.; [3]): 4 to 8 µg/mL
MIC Enterococccus faecium (GC 4556) (Enterococcus sp.; [3]): 4 to 8 µg/mL
MIC Enterococccus faecium (GC 4557) (Enterococcus sp.; [3]): 2 to 4 µg/mL
MIC Enterococcus faecalis (GC 2242) (Enterococcus sp.; [3]): 4 to 8 µg/mL
MIC Streptococcus agalactiae (GC 4564) (Streptococcus sp.; [3]): 0.5 µg/mL (≈ 0.354 µM)
MIC Streptococcus pneumoniae (GC 1894) (Streptococcus sp.; [3]): <0.06 µg/mL
MIC Streptococcus pneumoniae (GC 4565) (Streptococcus sp.; [3]): 0.25 µg/mL (≈ 0.177 µM)
MIC Streptococcus pneumonine (ATCC 6301) (Streptococcus sp.; [3]): 0.12 µg/mL (≈ 0.0849 µM)
MIC Streptococcus pyogenes (GC 4563) (Streptococcus sp.; [3]): 0.25 µg/mL (≈ 0.177 µM)
MIC Coagulase Negative Staphylococcus (GC 4547) (Staphylococcus sp.; [3]): 1 to 2 µg/mL
MIC Coagulase Negative Staphylococcus (GC 4548) (Staphylococcus sp.; [3]): 0.5 to 2 µg/mL
MIC Coagulase Negative Staphylococcus (GC 4549) (Staphylococcus sp.; [3]): 0.5 to 1 µg/mL
MIC Coagulase Negative Staphylococcus (GC 4551) (Staphylococcus sp.; [3]): 1 to 2 µg/mL
MIC Coagulase Negative Staphylococcus (GC 6257) (Staphylococcus sp.; [3]): 1 µg/mL (≈ 0.708 µM)
MIC Staphylococcus aureus-SMITH (GC 4543) (Staphylococcus sp.; [3]): 1 to 2 µg/mL
MIC Staphylococcus haemolyticus (GC 4546) (Staphylococcus sp.; [3]): 1 µg/mL (≈ 0.708 µM)
MIC Staphylococcus aureus (ATCC 29213) (Staphylococcus sp.; strain ATCC 29213): 1 to 2 µg/mL
MIC Staphylococcus aureus (ATCC 29213) (Staphylococcus sp.; [4]): 1 to 2 µg/mL
MIC Staphylococcus aureus (GC 1131) (Staphylococcus sp.; strain GC 1131): 2 µg/mL (≈ 1.42 µM)
MIC Staphylococcus aureus (GC 1131) (Staphylococcus sp.; [5]): 2 µg/mL (≈ 1.42 µM)
MIC Staphylococcus aureus (GC 3051) (Staphylococcus sp.; strain GC 3051): 1 to 2 µg/mL
MIC Staphylococcus aureus (GC 3051) (Staphylococcus sp.; [6]): 1 to 2 µg/mL
MIC Staphylococcus aureus (GC 3053) (Staphylococcus sp.; strain GC 3053): 2 to 4 µg/mL
MIC Staphylococcus aureus (GC 3053) (Staphylococcus sp.; [7]): 2 to 4 µg/mL
MIC Staphylococcus aureus (GC 4541) (Staphylococcus sp.; strain GC 4541): 1 to 2 µg/mL
MIC Staphylococcus aureus (GC 4541) (Staphylococcus sp.; [8]): 1 to 2 µg/mL
MIC Staphylococcus aureus (GC 4542) (Staphylococcus sp.; strain GC 4542): 1 to 2 µg/mL
MIC Staphylococcus aureus (GC 4542) (Staphylococcus sp.; [9]): 1 to 2 µg/mL
MIC Staphylococcus aureus-SMITH (GC 4543) (Staphylococcus sp.; [10]): 1 to 2 µg/mL
MIC Staphylococcus aureus (GC 4544) (Staphylococcus sp.; strain GC 4544): 2 µg/mL (≈ 1.42 µM)
MIC Staphylococcus aureus (GC 4544) (Staphylococcus sp.; [11]): 2 µg/mL (≈ 1.42 µM)
MIC Staphylococcus aureus (GC 4545) (Staphylococcus sp.; strain GC 4545): <2 to 4 µg/mL
MIC Staphylococcus aureus (GC 4545) (Staphylococcus sp.; [12]): 2 to 4 µg/mL
MIC Staphylococcus haemolyticus (GC 4546) (Staphylococcus sp.; [13]): 1 µg/mL (≈ 0.708 µM)
MIC Coagulase Negative Staphylococcus (GC 4547) (Staphylococcus sp.; [14]): 1 to 2 µg/mL
MIC Coagulase Negative Staphylococcus (GC 4548) (Staphylococcus sp.; [15]): 0.5 to 2 µg/mL
MIC Coagulase Negative Staphylococcus (GC 4549) (Staphylococcus sp.; [16]): 0.5 to 1 µg/mL
MIC Coagulase Negative Staphylococcus (GC 4551) (Staphylococcus sp.; [17]): 1 to 2 µg/mL
MIC Coagulase Negative Staphylococcus (GC 6257) (Staphylococcus sp.; [18]): 1 µg/mL (≈ 0.708 µM)

CC(c1ccccc1)C1NC(=O)CNC(=O)C(CO)NC(=O)C(C(O)C2CNC(=N)N2C2OC(CO)C(O)C(O)C2O)NC(=O)C(C(O)C2CNC(=N)N2)NC(=O)C(Cc2ccc(OC3OC(CO)C(OC4OC5COC(c6ccc7c(c6)OCO7)OC5C(O)C4O)C(O)C3O)cc2)NC1=O (stereo not drawn) [Example 143, Cyclo[glycyl-β-methylphenylalanyl-O-[4-O-[4,6-O-(1,3-benzodioxol-5-ylmethylene)hexopyranosyl]hexopyranosyl]tyrosyl-3-(2-iminoimidazolidin-4-yl)seryl-3-(3-hexopyranosyl-2-iminoimidazolidin-4-yl)serylseryl]]
median effective dose (ED50), Staphylococcus aureus-SMITH (GC 4543) [1]: 0.28 mg/kg
MIC Escherichia coli (ATCC 25922) (Escherichia coli; strain ATCC 25922): >64 µg/mL
MIC Escherichia coli (GC 4559) (Escherichia coli; strain GC 4559): 64 µg/mL (≈ 44.8 µM)
MIC Escherichi coli (GC 4560) (Escherichia coli; strain GC 4560): 1 to 2 µg/mL
MIC Enterococcus faecalis (GC 2691) (Enterococcus sp.; strain GC 2691): 8 µg/mL (≈ 5.6 µM)
MIC Enterococcus faecium (GC 4557) (Enterococcus sp.; strain GC 4557): 2 to 8 µg/mL
MIC Streptococcus agalactiae (GC 4564) (Streptococcus sp.; strain GC 4564): 0.5 to 1 µg/mL
MIC Coagulase Negative Staphylococcus (GC 4547) (Staphylococcus sp.; [3]): 1 to 2 µg/mL
MIC Coagulase Negative Staphylococcus (GC 4548) (Staphylococcus sp.; [3]): 1 to 2 µg/mL
MIC Coagulase Negative Staphylococcus (GC 4549) (Staphylococcus sp.; [3]): 1 µg/mL (≈ 0.701 µM)
MIC Coagulase Negative Staphylococcus (GC 4551) (Staphylococcus sp.; [3]): 2 to 4 µg/mL
MIC Coagulase Negative Staphylococcus (GC 6257) (Staphylococcus sp.; [3]): 1 to 2 µg/mL
MIC Staphylococcus aureus (ATCC 29213) (Staphylococcus sp.; [3]): 2 to 4 µg/mL
MIC Staphylococcus aureus (GC 1131) (Staphylococcus sp.; [3]): 2 to 4 µg/mL
MIC Staphylococcus aureus (GC 3051) (Staphylococcus sp.; [3]): 2 to 4 µg/mL
MIC Staphylococcus aureus (GC 3053) (Staphylococcus sp.; [3]): 4 to 8 µg/mL
MIC Staphylococcus aureus (GC 4541) (Staphylococcus sp.; [3]): 2 to 4 µg/mL
MIC Staphylococcus aureus (GC 4542) (Staphylococcus sp.; [3]): 1 to 4 µg/mL
MIC Staphylococcus aureus (GC 4544) (Staphylococcus sp.; [3]): 2 to 8 µg/mL
MIC Staphylococcus aureus (GC 4545) (Staphylococcus sp.; [3]): 2 to 4 µg/mL
MIC Staphylococcus aureus-SMITH (GC 4543) (Staphylococcus sp.; [3]): 2 to 4 µg/mL
MIC Staphylococcus haemolyticus (GC 4546) (Staphylococcus sp.; [3]): 0.5 to 2 µg/mL
MIC Staphylococcus aureus (ATCC 29213) (Staphylococcus sp.; [4]): 2 to 4 µg/mL
MIC Staphylococcus aureus (GC 1131) (Staphylococcus sp.; [5]): 2 to 4 µg/mL
MIC Staphylococcus aureus (GC 3051) (Staphylococcus sp.; [6]): 2 to 4 µg/mL
MIC Staphylococcus aureus (GC 3053) (Staphylococcus sp.; [7]): 4 to 8 µg/mL
MIC Staphylococcus aureus (GC 4541) (Staphylococcus sp.; [8]): 2 to 4 µg/mL
MIC Staphylococcus aureus (GC 4542) (Staphylococcus sp.; [9]): 1 to 4 µg/mL
MIC Staphylococcus aureus-SMITH (GC 4543) (Staphylococcus sp.; [10]): 2 to 4 µg/mL
MIC Staphylococcus aureus (GC 4544) (Staphylococcus sp.; [11]): 2 to 8 µg/mL
MIC Staphylococcus aureus (GC 4545) (Staphylococcus sp.; [12]): 2 to 4 µg/mL
MIC Staphylococcus haemolyticus (GC 4546) (Staphylococcus sp.; [13]): 0.5 to 2 µg/mL
MIC Coagulase Negative Staphylococcus (GC 4547) (Staphylococcus sp.; [14]): 1 to 2 µg/mL
MIC Coagulase Negative Staphylococcus (GC 4548) (Staphylococcus sp.; [15]): 1 to 2 µg/mL
MIC Coagulase Negative Staphylococcus (GC 4549) (Staphylococcus sp.; [16]): 1 µg/mL (≈ 0.701 µM)
MIC Coagulase Negative Staphylococcus (GC 4551) (Staphylococcus sp.; [17]): 2 to 4 µg/mL
MIC Coagulase Negative Staphylococcus (GC 6257) (Staphylococcus sp.; [18]): 1 to 2 µg/mL
